# Test results published in patent publication US20190083462A1, “PREVENTION OF NSAID ENTEROPATHY WITH MICROBIOTA-DERIVED TRYPTOPHAN-METABOLITE” (THE TEXAS A&M UNIVERSITY SYSTEM, priority 2016, published 2019).
# What was measured:
# [1] = tested on: C57BL/6J mice; assay: Histology and small intestinal morphometric measurements; assay type: in vivo
# Method: Eight- to 10-week-old specific-pathogen-free C57BL/6J mice were purchased and allowed to acclimate for 2 weeks. Mice were fed standardized laboratory rodent diet and sterile water ad libitum. […] Mice were then rehoused on the basis of treatment group assignment, with 5 animals/group-cage. To induce NSAID enteropathy, mice in group 1 were gavaged once daily with indomethacin (5 mg/kg; for 7 days; Sigma Aldrich, St. Louis, Mo.) dissolved in dimethylysulfoxide (DMSO) (Sigma Aldrich, St. Louis, Mo.) and further diluted in phosphate buffered saline (PBS). […] All mice were gavaged with equal volumes (200 μL) and equal concentrations of DMSO (0.001%).
# Feces were collected daily by placing individual animals in sterile plastic cups that were RNase- and DNase-free until they passed feces. The mice were immediately returned to their home cages and the feces immediately flash frozen at −80° C. All animals were euthanized via CO2 asphyxiation on day 8 (i.e., after 7 days of treatment). The small intestine was harvested, opened longitudinally, rinsed with ice-cold PBS, and the distal ⅓ of the intestinal mucosa was scraped for tissue gene expression analysis. The remaining small intestine was fixed in 4% paraformaldehyde, Swiss-rolled, paraffin-embedded, and stained with hematoxylin and eosin.
# The slides were scored as previously described for intestinal inflammation (Jia Q, Lupton J R, Smith R, Weeks B R, Callaway E, Davidson L A, Kim W, Fan Y Y, Yang P, Newman R A, et al. Reduced colitis-associated colon cancer in Fat-1 (n-3 fatty acid desaturase) transgenic mice. Cancer Research 2008; 68:3985-91). Briefly, mucosal injury was determined by the following parameters scored from 0 (no evidence) to 3 (marked): mucosal ulceration, mucosal erosion, and presence of squamified epithelium. Inflammatory changes were scored similarly based on the following parameters: lymphocytic infiltration, plasma cell infiltration, and neutrophilic infiltration. Finally, an overall evidence of injury score was used to document total injury graded from 0 (none) to 4 (marked). Morphological parameters were obtained from digitally scanned slides using SPOT vr 5.0 software. Three sets of measurements from 3 separate sections were recorded for each animal by an observer blinded to treatment group. Measurements consisted of villus height, crypt depth, and submucosal mural thickness.
# [2] = tested on: CD11b- and GR-1-positive cells (i.e., neutrophils); assay: Flow cytometry of spleen and mesenteric lymph nodes; assay type: in vivo, mice; details: after 7 days of treatment
# Method: Eight- to 10-week-old specific-pathogen-free C57BL/6J mice were purchased and allowed to acclimate for 2 weeks. Mice were fed standardized laboratory rodent diet and sterile water ad libitum. […] Mice were then rehoused on the basis of treatment group assignment, with 5 animals/group-cage. To induce NSAID enteropathy, mice in group 1 were gavaged once daily with indomethacin (5 mg/kg; for 7 days; Sigma Aldrich, St. Louis, Mo.) dissolved in dimethylysulfoxide (DMSO) (Sigma Aldrich, St. Louis, Mo.) and further diluted in phosphate buffered saline (PBS). […] Sigma Aldrich, St. Louis, Mo.) dissolved in sterile water warmed to 55° C. […] All mice were gavaged with equal volumes (200 μL) and equal concentrations of DMSO (0.001%). Feces were collected daily by placing individual animals in sterile plastic cups that were RNase- and DNase-free until they passed feces. The mice were immediately returned to their home cages and the feces immediately flash frozen at -80° C. All animals were euthanized via CO2 asphyxiation on day 8 (i.e., after 7 days of treatment). […] Life Technologies, Carlsbad, Calif.), homogenized, and prepared as a single cell suspension for flow cytometric analysis as previously described (Wang […]. Measuring bacterial load and immune responses in mice infected with Listeria monocytogenes. Journal of Visualized Experiments: JoVE 2011). […]
# [3] = tested on: small intestinal mucosa; assay: RNA sequencing (RNA-Seq) of the distal small intestinal mucosa; assay type: in vivo, mice
# Source text: Eight- to 10-week-old specific-pathogen-free C57BL/6J mice were purchased and allowed to acclimate for 2 weeks. Mice were fed standardized laboratory rodent diet and sterile water ad libitum. Mice were randomly divided into the following 4 groups (n=5 mice/group): 1) NSAID (indomethacin); 2) indole; 3) NSAID+indole; and, 4) untreated controls. Mice were then rehoused on the basis of treatment group assignment, with 5 animals/group-cage. To induce NSAID enteropathy, mice in group 1 were gavaged once daily with indomethacin (5 mg/kg; for 7 days; Sigma Aldrich, St. Louis, Mo.) dissolved in dimethylysulfoxide (DMSO) (Sigma Aldrich, St. Louis, Mo.) and further diluted in phosphate buffered saline (PBS). Mice in group 2 received indole by gavage (20 mg/kg; once daily for 7 days; Sigma Aldrich, St. Louis, Mo.) dissolved in sterile water warmed to 55° C. Mice in group 3 received indole co-administered with indomethacin by gavage at the dosages described above. All mice were gavaged with equal volumes (200 μL) and equal concentrations of DMSO (0.001%).
# Feces were collected daily by placing individual animals in sterile plastic cups that were RNase- and DNase-free until they passed feces. The mice were immediately returned to their home cages and the feces immediately flash frozen at −80° C. […]
# RNA was extracted from the mucosal scrapings using an RNeasy mini kit (QIAGEN, Redwood City, Calif.) following the manufacturer's instructions and including on-column DNase treatment. RNA quantity was determined using a Nanodrop spectrophotometer (Fisher Thermoscientific) and the quality was assessed using the Nano6000 chip on a Bioanalyzer 2100(Agilent Technologies). […] Differentially expressed genes were determined using EdgeR based on the matrix of gene counts (Robinson M D, McCarthy D J, Smyth G K. edgeR: a Bioconductor package for differential expression analysis of digital gene expression data. Bioinformatics (Oxford, England) 2010; 26:139-40). Gene lists were analyzed through use of QIAGEN's Ingenuity® Pathway Analysis (IPA, QIAGEN, Redwood City, Calif. http://www.qiagen.com/ingenuity). […]
smiles,measurement,setting,value
"COc1ccc2c(c1)c(CC(=O)O)c(C)n2C(=O)c1ccc(Cl)cc1 [NSAID, indomethacin]",microscopic pathology scores,"[1]; Swiss-rolled H & E stained small intestinal sections, n=5/group",significant difference from control
same,effect on the large intestine,[1]; data not shown,negligible effect
same,ratio of villus height to crypt depth,[1]; small intestinal mucosa,significantly decreased
same,percentage of CD11b- and GR-1-positive cells (neutrophils) in the mesenteric lymph nodes (MLN),[2],significant increase
same,percentage of CD11b- and GR-1-positive cells (neutrophils) in the spleen,[2],significant increase
same,NF-κB signaling pathway activation,[3]; RNA-Seq pathway analysis of mucosal scrapings,activated
same,"transcription of pro-inflammatory cytokines (IL-1α, IL-1β, TNF, IL-6) and chemokines (CXCL1, CXCL3, CXCL2, CXCL5, CCL2, CCL7)","[3]; small intestinal mucosal transcriptome after 7 days, vs control mice",significantly up-regulated
